In patent US8952024B2, “Herbicidal pyrimidone derivatives” (E I du Pont de Nemours and Company, priority 2009, dated 2015):

Columns and labels:
Assay in all cases: Test B pre-/postemergence plant response
Assay type in all cases: in vivo
[1] = system: bermudagrass (Cynodon dactylon)
How it was run: (§1)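 Plants treated either at seeding (loam/sand soil) or postemergence at 2 to 18 cm height, using a surfactant-containing non-phytotoxic solvent formulation. Evaluation was visual after 13 to 15 days, 0 to 100 scale relative to controls.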

[2] = system: wheat (Triticum aestivum); settings: for Wheat plant response rating (0 to 100 scale): 0 is no effect
How it was run: as §1

soybean (Glycine max) = settings: for Soybean plant response rating (0 to 100 scale): 0 is no effect
How it was run: as §1

[3] = system: lambsquarters (Chenopodium album)
How it was run: as §1

kochia (Kochia scoparia) = system: kochia (Kochia scoparia)
How it was run: as §1

[4] = system: yellow nutsedge (Cyperus esculentus)
How it was run: as §1

[5] = system: woolly cupgrass (Eriochloa villosa)
How it was run: as §1

[6] = system: johnsongrass (Sorghum halepense)
How it was run: as §1

[7] = system: velvetleaf (Abutilon theophrasti); settings: for Velvetleaf plant response rating (0 to 100 scale): 0 is no effect
How it was run: as §1

[8] = system: goosegrass (Eleusine indica)
How it was run: as §1

[9] = system: green foxtail (Setaria viridis)
How it was run: as §1

[10] = system: ragweed (common ragweed, Ambrosia elatior); settings: for Ragweed plant response rating (0 to 100 scale): 0 is no effect
How it was run: as §1

[11] = system: large crabgrass (Digitaria sanguinalis)
How it was run: as §1

[12] = Postemergence, 31 g ai/ha, scale 0 to 100 (0 no effect, 100 complete control)
[13] = Postemergence, 62 g ai/ha, scale 0 (no effect) to 100 (complete control), 13 to 15 days
[14] = Postemergence, 250 g ai/ha, scale 0 to 100
[15] = Postemergence, 125 g ai/ha, visual rating after 13 to 15 days, scale 0 (no effect) to 100 (complete control)
[16] = Preemergence, 100 is complete control, rated after 13 to 15 days, application rate of this section not shown
[17] = 31 g ai/ha, postemergence, scale 0 to 100, 0 is no effect, 100 is complete control
[18] = 62 g ai/ha, postemergence, 0 is no effect, 100 is complete control, 13 to 15 days
[19] = Postemergence, 250 g ai/ha, scale 0 to 100 (0 no effect, 100 complete control)
[20] = Preemergence, 62 g ai/ha, scale 0 to 100 (0 no effect, 100 complete control)
[21] = Preemergence, 125 g ai/ha, scale 0 to 100, 0 no effect, 100 complete control
[22] = 62 g ai/ha, postemergence, 100 is complete control, 13 to 15 days
[23] = Preemergence, 31 g ai/ha, scale 0 to 100 (0 no effect, 100 complete control)
[24] = Preemergence, 250 g ai/ha, 0 to 100 scale

5-[(2-hydroxy-6-oxo-1-cyclohexen-1-yl)carbonyl]-2,3-diphenyl-4(3H)-pyrimidinone [Compound 2]
Plant response rating, Bermudagrass [1, 12]: 40
Plant response rating, Bermudagrass [1, 13]: 50
Plant response rating, Bermudagrass ([1]; Postemergence, 125 g ai/ha, scale 0 to 100 (0 no effect, 100 complete control), 13 to 15 days): 60
Bermudagrass plant response rating [1, 14]: 65
Plant response rating, Wheat [2, 12]: 0
Plant response rating, Wheat [2, 13]: 0
Plant response rating, Wheat [2, 15]: 0
Wheat plant response rating [2, 14]: 5
Wheat plant response rating (0 to 100 scale) [2, 16]: 0
Plant response rating, Soybean (soybean (Glycine max); [12]): 50
Plant response rating, Soybean (soybean (Glycine max); [13]): 65
Plant response rating, Soybean (soybean (Glycine max); [15]): 70
Soybean plant response rating (soybean (Glycine max); [14]): 80
Soybean plant response rating (0 to 100 scale) (soybean (Glycine max); [16]): 0
Plant response rating, Lambsquarters [3, 12]: 70
Plant response rating, Lambsquarters [3, 13]: 75
Plant response rating, Lambsquarters [3, 15]: 90
Lambsquarters plant response rating [3, 14]: 90
Plant response rating, Kochia (kochia (Kochia scoparia); [12]): 15
Plant response rating, Kochia (kochia (Kochia scoparia); [13]): 20
Plant response rating, Kochia (kochia (Kochia scoparia); [15]): 25
Kochia plant response rating (kochia (Kochia scoparia); [14]): 45
Plant response rating, Nutsedge, Yellow [4, 12]: 15
Plant response rating, Nutsedge, Yellow [4, 13]: 20
Plant response rating, Nutsedge, Yellow [4, 15]: 20
Nutsedge, Yellow plant response rating [4, 14]: 45
Plant response rating, Cupgrass, Woolly [5, 12]: 0
Plant response rating, Cupgrass, Woolly [5, 13]: 0
Plant response rating, Cupgrass, Woolly [5, 15]: 0
Cupgrass, Woolly plant response rating [5, 14]: 20
Plant response rating, Johnsongrass [6, 12]: 0
Plant response rating, Johnsongrass [6, 13]: 0
Plant response rating, Johnsongrass [6, 15]: 0
Johnsongrass plant response rating [6, 14]: 20
Plant response rating, Velvetleaf [7, 12]: 55
Plant response rating, Velvetleaf [7, 13]: 75
Plant response rating, Velvetleaf [7, 15]: 85
Velvetleaf plant response rating [7, 14]: 90
Velvetleaf plant response rating (0 to 100 scale) [7, 16]: 0
Plant response rating, Goosegrass [8, 12]: 60
Plant response rating, Goosegrass [8, 13]: 60
Plant response rating, Goosegrass [8, 15]: 65
Goosegrass plant response rating [8, 14]: 80
Plant response rating, Foxtail, Green [9, 12]: 5
Plant response rating, Foxtail, Green [9, 13]: 10
Plant response rating, Foxtail, Green [9, 15]: 30
Foxtail, Green plant response rating [9, 14]: 40
Plant response rating, Ragweed [10, 12]: 60
Plant response rating, Ragweed [10, 13]: 70
Plant response rating, Ragweed [10, 15]: 70
Ragweed plant response rating [10, 14]: 75
Ragweed plant response rating (0 to 100 scale) [10, 16]: 25
Plant response rating, Crabgrass, Large [11, 12]: 40
Plant response rating, Crabgrass, Large [11, 13]: 50
Plant response rating, Crabgrass, Large [11, 15]: 55
Crabgrass, Large plant response rating [11, 14]: 65

CCCc1ncc(C(=O)C2=C(O)CCCC2=O)c(=O)n1CC1CCCO1 (stereo not shown) [Compound 74]
Plant response rating, Bermudagrass [1, 17]: 75
Bermudagrass plant response rating (0 to 100 scale) [1, 18]: 80
Plant response rating, Bermudagrass [1, 15]: 95
Plant response rating, Bermudagrass [1, 19]: 98
Plant response rating, Bermudagrass [1, 20]: 98
Plant response rating, Bermudagrass [1, 21]: 100
Bermudagrass plant response rating ([1]; Preemergence, 250 g ai/ha, 0 to 100 scale, 0 no effect, 100 complete control): 100
Plant response rating, Wheat [2, 17]: 5
Wheat plant response rating (0 to 100 scale) [2, 22]: 5
Plant response rating, Wheat [2, 15]: 30
Plant response rating, Wheat [2, 19]: 50
Plant response rating, Wheat [2, 23]: 0
Plant response rating, Wheat [2, 20]: 0
Plant response rating, Wheat [2, 21]: 0
Wheat plant response rating [2, 24]: 0
Plant response rating, Soybean (soybean (Glycine max); [17]): 75
Soybean plant response rating (0 to 100 scale) (soybean (Glycine max); [22]): 75
Plant response rating, Soybean (soybean (Glycine max); [15]): 95
Plant response rating, Soybean (soybean (Glycine max); [19]): 95
Plant response rating, Lambsquarters [3, 17]: 95
Lambsquarters plant response rating (0 to 100 scale) [3, 18]: 95
Plant response rating, Lambsquarters [3, 15]: 95
Plant response rating, Lambsquarters [3, 19]: 98
Plant response rating, Lambsquarters [3, 23]: 98
Plant response rating, Lambsquarters [3, 20]: 98
Plant response rating, Lambsquarters [3, 21]: 98
Lambsquarters plant response rating [3, 24]: 100
Plant response rating, Kochia (kochia (Kochia scoparia); [17]): 75
Kochia plant response rating (0 to 100 scale) (kochia (Kochia scoparia); [18]): 75
Plant response rating, Kochia (kochia (Kochia scoparia); [15]): 95
Plant response rating, Kochia (kochia (Kochia scoparia); [19]): 98
Plant response rating, Kochia (kochia (Kochia scoparia); [23]): 80
Plant response rating, Kochia (kochia (Kochia scoparia); [21]): 85
Kochia plant response rating (kochia (Kochia scoparia); [24]): 85
Plant response rating, Nutsedge, Yellow [4, 17]: 20
Nutsedge, Yellow plant response rating (0 to 100 scale) [4, 18]: 20
Plant response rating, Nutsedge, Yellow [4, 15]: 70
Plant response rating, Nutsedge, Yellow [4, 19]: 70
Plant response rating, Nutsedge, Yellow [4, 23]: 20
Plant response rating, Nutsedge, Yellow [4, 20]: 55
Plant response rating, Nutsedge, Yellow [4, 21]: 65
Nutsedge, Yellow plant response rating [4, 24]: 90
Plant response rating, Cupgrass, Woolly [5, 17]: 10
Cupgrass, Woolly plant response rating (0 to 100 scale) [5, 18]: 10
Plant response rating, Cupgrass, Woolly [5, 15]: 55
Plant response rating, Cupgrass, Woolly [5, 19]: 75
Plant response rating, Cupgrass, Woolly [5, 23]: 0
Plant response rating, Cupgrass, Woolly [5, 20]: 0
Plant response rating, Cupgrass, Woolly [5, 21]: 0
Cupgrass, Woolly plant response rating [5, 24]: 5
Plant response rating, Johnsongrass [6, 17]: 0
Johnsongrass plant response rating (0 to 100 scale) [6, 18]: 0
Plant response rating, Johnsongrass [6, 15]: 10
Plant response rating, Johnsongrass [6, 19]: 85
Plant response rating, Johnsongrass [6, 23]: 0
Plant response rating, Johnsongrass [6, 20]: 0
Plant response rating, Johnsongrass [6, 21]: 0
Johnsongrass plant response rating [6, 24]: 0
Plant response rating, Velvetleaf [7, 17]: 98
Velvetleaf plant response rating (0 to 100 scale) [7, 22]: 100
Plant response rating, Velvetleaf [7, 15]: 100
Plant response rating, Velvetleaf [7, 19]: 100
Plant response rating, Velvetleaf [7, 23]: 98
Plant response rating, Velvetleaf [7, 20]: 100
Plant response rating, Velvetleaf [7, 21]: 100
Velvetleaf plant response rating [7, 24]: 100
Plant response rating, Goosegrass [8, 17]: 65
Goosegrass plant response rating (0 to 100 scale) [8, 18]: 75
Plant response rating, Goosegrass [8, 15]: 80
Plant response rating, Goosegrass [8, 19]: 85
Plant response rating, Goosegrass [8, 23]: 98
Plant response rating, Goosegrass [8, 20]: 98
Plant response rating, Goosegrass [8, 21]: 100
Goosegrass plant response rating [8, 24]: 100
Plant response rating, Foxtail, Green [9, 17]: 20
Foxtail, Green plant response rating (0 to 100 scale) [9, 18]: 20
Plant response rating, Foxtail, Green [9, 15]: 80
Plant response rating, Foxtail, Green [9, 19]: 85
Plant response rating, Foxtail, Green [9, 23]: 0
Plant response rating, Foxtail, Green [9, 20]: 0
Plant response rating, Foxtail, Green [9, 21]: 0
Foxtail, Green plant response rating [9, 24]: 0
Plant response rating, Ragweed [10, 17]: 75
Ragweed plant response rating (0 to 100 scale) [10, 22]: 75
Plant response rating, Ragweed [10, 15]: 85
Plant response rating, Ragweed [10, 19]: 90
Plant response rating, Ragweed [10, 23]: 10
Plant response rating, Ragweed [10, 20]: 98
Plant response rating, Ragweed [10, 21]: 98
Ragweed plant response rating [10, 24]: 100
Plant response rating, Crabgrass, Large [11, 17]: 80
Crabgrass, Large plant response rating (0 to 100 scale) [11, 18]: 80
Plant response rating, Crabgrass, Large [11, 15]: 95
Plant response rating, Crabgrass, Large [11, 19]: 95
Plant response rating, Crabgrass, Large [11, 23]: 98
Plant response rating, Crabgrass, Large [11, 20]: 98
Plant response rating, Crabgrass, Large [11, 21]: 100
Crabgrass, Large plant response rating [11, 24]: 100
